The values that follow come from paper PMC5374710, “Discovery of the first dual GSK3β inhibitor/Nrf2 inducer. A new multitarget therapeutic strategy for Alzheimer’s disease” (Scientific Reports, 2017).

The target in one series is T1, GSK3β (Homo sapiens, UniProt P49841).
T1 construct: purchased Promega V1991
Briefly: GSK3β inhibition, luminescence Kinase-Glo assay. The series is classed as biochemical. The note with it: for Ki: calculated from IC50 by Cheng-Prusoff equation, Km ATP 2.345 µM, read-out: Ki (apparent equilibrium dissociation constant); for IC50: four concentrations 0.1, 1, 10, 30 μM, ATP 1 μM, 1 h.

For series [1], the system named is primary rat glial cells. Nature of the series: Nitrite production in LPS-stimulated primary glial cultures (Griess). The series is classed as cell-based. The note with it: Glial cell, 24 h pre-incubation, 18 h co-incubation with LPS 1 μg/mL, read-out: IC50 nitrite reduction. The text has this: (§1) Therefore, we envisaged the study of compounds 5a–t as potential anti-inflammatory agents. We used primary rat glial cells treated with lipopolysaccharide (LPS) to induce the production of nitrites and ROS as a model of glial activation. Nitrite production is directly proportional to the expression of the iNOS, that is over-expressed when LPS activates glial cells. ROS production is proportional to NOX activation after stimulation with LPS. Results are summarized in Table 2 as IC50s of nitrite production reduction and ROS production reduction. We have included sulforaphane as control in all experiments (see the Supporting Information).
Glial cells were pre-incubated with increasing concentrations of compounds for 24 hours. Then, treatments were removed and cells were incubated with LPS (1 μg/mL) alone or in presence of each compound at the desired concentration. Nitrite production was assessed 18 hours later by modified Griess assay. Briefly, samples (150 μl) were mixed with dapsone (75 μl) and NEDA (75 μl), and the mixture was incubated at room temperature for 5 min. Light absorption was measured at 550 nm in a microplate reader (Labtech, Offenburg, Germany). All data were normalized to basal nitrite production, considering this value as 100% of nitrite production. IC50 values were calculated from dose-response curves represented as percentage of nitrite production reduction induced by the different concentrations of each compound.
(§2) Mixed glial cultures were obtained from cerebral cortex of 2-5 day-old Sprague-Dawley rats. After removal of blood vessels and meninges, the forebrains were dissociated in DMEM/F12 medium. After mechanical dissociation, cells were plated (3x10^5 cells/ml) in DMEM/F12 medium with 20% fetal bovine serum (FBS) and 1 % penicillin/streptomycin (10,000 units), at 37 °C and in a 5 % CO2-supplemented air atmosphere. After 5 days, medium was substituted by DMEM/F12 medium with 10 % FBS. Cells were cultured for 7-10 days before treatment.
Primary rat glial cells were treated with compounds 5a-t at increasing concentrations (3, 10, 30 and 60 µM) during 24 h. Thereafter, treatments were removed and glial cells were co-incubated with increasing concentrations of each compound and LPS (1 µg/mL) for 18 h more. At the end of this period, supernatant was collected and the presence of nitrites was analyzed by the Griess method with modifications.^20 Each plate included non-treated cells as basal nitrite production, sulforaphane (SFN, 10 µM) as positive control. Briefly, samples (150 µl) were mixed with DAPSONE (75 µl) and NEDA (75 µl), and the mixture was incubated at room temperature for 5 min. Light absorption was measured at 550 nm in a microplate reader (Labtech, Offenburg, Germany). All data were normalized to basal nitrite production, considering this value as 100% of nitrite production. EC50 values were calculated from dose-response curves represented as percentage of nitrite production reduction induced by the different concentrations of each compound. Concentration response curves were fitted by non-linear regression analysis of individual concentration-response curves using GraphPad Prism software (San Diego, CA, USA). EC50 values are expressed as mean ± SEM of four different experiments in triplicate.
A general note: Nitrite, measured by Griess reagent, commonly stands in for NO production.

For series [2], the system named is primary rat glial cells. Briefly: ROS production in LPS-stimulated primary glial cultures (H2DCFDA). It is filed as cell-based. The note with it: Glial cell, 24 h pre-incubation, 18 h co-incubation with LPS, 3 h with fluorescent dye, read-out: IC50 ROS reduction.
Excerpt: as §1
Besides the increase in nitrite production, it is well known that LPS stimulation of microglia also induces the activation of NOX, which induces superoxide free radical production. In fact, this mechanism is synergistic with the expression of iNOS and the production of nitrites. In this respect, there is a body of evidence showing that NOX activation is a major contributor to ROS oxidative stress and neuronal death in AD[57][58]. […] In general, potency to reduce ROS production increased from ortho to para and meta as observed above.
(§3) Primary glial cells were cultured in bottom transparent 96-well black plates following standard protocol. Cells were pre-incubated with the corresponding compound at the selected concentrations, for 24 hours, and therafter, co-incubated with the corresponding compound and LPS (1 μM) during 18 h more. Then, treatments were removed and cells were loaded with the fluorescent probe 2′,7′-dichlorodihydrofluorescein diacetate (H2DCFDA) (10 μM) for 45 minutes in serum free glial culture medium. All experiments included cells treated with culture medium alone (basal). Cells were washed twice with culture medium and fluorescence intensity was recorded in a Fluostar Optima multiwall pate reader (BMG Labtech, Offenburg, Germany) at 485/520 nm as excitation and emission wavelengths respectively, each hour, during 3 hours period. Data were normalized with respect to basal conditions that were considered as 100%.
as §3, with “µM)” for “μM)”, “2',7'-dichlorodihydrofluorescein” for “2′,7′-dichlorodihydrofluorescein”
as §2

The next series relates to HepG2 cells. Nature of the series: Hepatotoxicity in HepG2 cell line (MTT). The note with it: 24 h.

T1 sequence (P49841 whole entry): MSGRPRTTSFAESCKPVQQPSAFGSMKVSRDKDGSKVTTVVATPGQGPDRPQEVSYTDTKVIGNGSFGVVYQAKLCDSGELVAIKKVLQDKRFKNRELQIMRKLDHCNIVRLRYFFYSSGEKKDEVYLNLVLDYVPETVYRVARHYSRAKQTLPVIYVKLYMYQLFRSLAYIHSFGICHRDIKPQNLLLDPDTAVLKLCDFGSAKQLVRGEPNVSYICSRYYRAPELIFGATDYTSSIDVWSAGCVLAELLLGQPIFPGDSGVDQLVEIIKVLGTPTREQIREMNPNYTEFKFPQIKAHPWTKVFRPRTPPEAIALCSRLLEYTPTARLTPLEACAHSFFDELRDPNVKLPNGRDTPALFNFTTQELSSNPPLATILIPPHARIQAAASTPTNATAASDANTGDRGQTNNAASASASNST
Experimental for GSK3β: GSK3β inhibitory activity was evaluated using the method developed by Baki[66], with modifications. Compounds were dissolved in assay buffer, containing 40 mM Tris (pH 7.5), 20 mM MgCl2, 0.1 mg/ml BSA (bovine serum albumin) and 50 μM dithiothreitol (DTT) at the desired concentrations. Firstly, 10 μl of enzyme (10 ng) and 10 μl of each compound were mixed for 30 min. Then, 20 μl of a mixture of ATP (1 μM) and GSK3β peptidic substrate were added to each well. The mixture was incubated for 60 min at 30 °C. Thereafter, the remaining ATP concentration was measured with the Kinase-Glo system following instructions from the supplier. Luminescence was measured in an Orion II microplate luminometer (Berthold, Germany) as relative light units (RLU). […] IC50 values were calculated by non-linear regression analysis of individual concentration-response curves using GraphPad Prism 5.0 software (San Diego, CA, USA).
The ability of the compounds to inhibit GSK3β was evaluated using the method developed by Baki^9 with some modifications. The tested compounds were dissolved in assay buffer, containing 40 mM Tris (pH 7.5), 20 mM MgCl2, 0.1 mg/ml BSA (bovine serum albumin) and 50 µM dithiothreitol (DTT), to achieve final reaction concentrations of 0.1, 1, 10 and 30 µM. […] The GSK3β inhibition assay was performed in white 96-well plates, in duplicates. Firstly, 10 µl of enzyme (10 ng) were added to each well, followed by 10 µl of the compounds at the desired concentration. After 30 minutes, 20 µl of a mixture of ATP and GSK3β peptidic substrate were added to each well, achieving a final concentration of 1 µM of ATP and 25 of µM peptidic substrate. The mixture was incubated at 30 °C for 60 minutes. Once the reaction was finished, the remaining ATP concentration was measured by adding 40 µl/well of Kinase-Glo reagent. The luminescence was measured in an Orion II microplate luminometer (Berthold, Germany) as relative light units (RLU). The luminescence recorded is proportional to the amount of ATP present in each well.
Apparent Ki for each compound were calculated from GSK3β Km value for ATP, applying the Cheng-Prusoff equation^10,11 in its simplified form: Ki = IC50/(1+([S]/Km)), in which S refers to the ATP concentration and Km is the Michaelis constant of the substrate for GSK3β.
Experimental for HepG2 cells: Thus, it is relevant to study the potential neurotoxicity and hepatotoxicity of the novel dual GSK3β inhibitors-Nrf2 inducers 5a–t.
Viability was measured as MTT reduction in presence of increasing concentrations of derivatives. Values are expressed as LD50 calculated from dose-response curves of four different concentrations.
HepG2 cells were cultured according to supplier indications in EMEM supplemented with 10 % heat-inactivated FBS, 100 µg/mL streptomycin and 100 units/mL penicillin. Cells were maintained at 37 °C in humidified atmosphere of 95 % air and 5 % CO2. For experimental procedures, cells were cultured in 96-well plates at density of 1x10^5 cells/well. Treatments were performed in 1% FBS medium unless other concentration was specified. Cells were used from 4 up to 13 passages.
Cells were cultured in 48-well (SH-SY5Y, 1x10^5 cells per well) or 96-well plates (HepG2, 1x10^5 cells per well) for 24 h. […] Control cells were incubated with the same concentration of DMSO (0.1 % final concentration) without any drug.

For the compound `Cc1[nH]nc2c1C(c1ccc([N+](=O)[O-])cc1)C(C#N)=C(N)O2` (centres unmarked) [Compound 5p, 6-Amino-3-methyl-4-(4-nitrophenyl)-2,4-dihydropyrano[2,3-c]pyrazole-5-carbonitrile], the Ki at GSK3β is 11.4 µM. The figures for the half-inhibitory concentration (IC50) against GSK3β, in the series on primary rat glial cells [1] and in the series with primary rat glial cells [2] were 16.3 ± 2.8 µM, 26.7 ± 4.86 µM and > 60 µM, respectively. The “HepG2 LD50” value in the series with HepG2 cells was > 100 µM.
`Cc1ccccc1C1C(C#N)=C(N)Oc2[nH]nc(C)c21` (centres unmarked) [Compound 5e, 6-Amino-3-methyl-4-(2-methylphenyl)-2,4-dihydropyrano[2,3-c]pyrazole-5-carbonitrile]: the values for the IC50 on GSK3β, in the series with primary rat glial cells [1] and in the series with primary rat glial cells [2] were > 30 µM, 34.3 ± 3.84 µM and 60 ± 0.29 µM, respectively. The “HepG2 LD50” value in the series with HepG2 cells is reported as > 100 µM.
Consider `Cc1n[nH]c2c1C(c1ccc(F)cc1)C(C#N)=C(N)O2` (centres unmarked) [Compound 5h, 6-Amino-4-(4-fluorophenyl)-3-methyl-2,4-dihydropyrano[2,3-c]pyrazole-5-carbonitrile], for which the Ki on GSK3β is 12.5 µM. Moreover, the IC50 at GSK3β was determined as 17.9 ± 1.5 µM; in the series on primary rat glial cells [1] it was 11.3 ± 1.15 µM; in the series on primary rat glial cells [2] it was 37 ± 4.32 µM. For the same compound, the “HepG2 LD50” value with HepG2 cells is listed as > 100 µM.

The IC50 is the concentration at which inhibition is half-maximal.
